Results as given in US20250034084A1, “COMPOSITIONS AND METHODS FOR PREVENTING OR TREATING MYCOSIS” (AMTIXBIO CO., LTD., priority 2016, published 2025).
≈ marks a conversion by molar mass, not a printed value.

Key:
[1] = tested on: Aspergillus fumigatus strains (KCCM32791, KCCM60031, KCCM60293, KCCM60036, KCCM60031, and KCCM60027); experiment: MIC test against several Aspergillus fumigatus strains (FIG. 2); format: cell-based
[2] = tested on: Fusarium graminearum (KCTC16656) and Fusarium (KSU11480); format: cell-based; details: YPD solid medium, FIG. 4
[3] = tested on: Candida glabrata BG2 (ATCC); experiment: Antifungal activity assay (MIC), NCCLS method; format: cell-based; details: RPMI 1640 medium
Source text: (§1) In order to measure the minimum inhibitory concentration (MIC), strains Candida albicans SC5314 (ATCC), Candida glabrata BG2 (ATCC), and Cryptococcus neoformans var. grubii […] were used. All the strains used in the test examples of the present invention were purchased from Korean Culture Center of Microorganisms (KCCM) and ATCC, and used. […] As a control group, amphotericin B and fluconazole, which are known to have excellent antifungal inhibitory activity with a problem of human toxicity, were used. Specifically, in order to prepare a medium first, 8.4 g of RPMI-1640 powder (Sigma; […]-1L) was added to 900 ml of distilled water. Next, 34.5 g of MOPS was added thereto, to bring the final concentration to 0.165 M. Then, 100 ml of 20% glucose was added thereto, and then the pH of the resultant was adjusted to 7 using NaOH. Next, after performing filtration with a filter, the filtrate was stored in a refrigeration condition at 4° C. for use in the next experiment. The experimental method and procedure for the MIC assay were as follows: […] (c) in a case of Aspergillus fumigatus, a diluent was prepared at a concentration of 1×10^5 conidia/ml; (d) a 96-well plate was used and 100 μl of the solution was added to each well, so that 2 μl of diluted drug was prepared; (e) 200 μl of the solution was added to a well into which the highest concentration of drug was to be added, and dilution was performed by serial dilution; (f) after performing static culture for 48 hours at 37° C., a degree of growth was measured at OD600 and a comparison was made.

[4] = tested on: Cryptococcus neoformans var. grubii H99 (ATCC); experiment: Antifungal activity assay (MIC), NCCLS method; format: cell-based; details: RPMI 1640 medium
Source text: as §1

[5] = tested on: Candida albicans SC5314 (ATCC); experiment: Antifungal activity assay (MIC), NCCLS method; format: cell-based; details: RPMI 1640 medium
Source text: as §1

[6] = tested on: Trichophyton tonsurans, Trichophyton rubrum, Trichophyton mentagrophytes; experiment: Suppressive activity against Trichophytons on YPD solid medium; format: cell-based; details: six Trichophyton strains
[7] = tested on: Cryptococcus neoformans wild-type (H99S); experiment: Drug efficacy in Galleria mellonella insect model infected with C. neoformans
Method: The wild-type (H99S) strain of Cryptococcus neoformans, which is pathogenic fungi, was inoculated into a yeast extract, peptone, and dextrose (YPD) liquid medium, cultured for 16 hours, and then washed twice with phosphate buffered saline (PBS), to prepare a final sample of 10^6 cells/ml. […] A 4 p1 suspension of C. neoformans prepared was injected into a proleg of larvae, so that 4,000 pathogen cells were infected per larva, in which an automatic injector (PB600-1) manufactured by Hamilton Company, and 100 pl syringes and needles were used. […] A group into which PBS alone was injected each time after the infection with C. neoformans was tested as a positive control, and a group in which both infection and drug injection were replaced with PBS was tested as a negative control. […] The larvae were determined as dead in a case where the larvae became dark-colored and made no movement. […] For significance with the controls, a significance level was determined using the Long-rank (Mantel-Cox) method.

Molecule	inhibitory activity (MIC, average values) compared with amphotericin B [1]	suppressive activity against phytopathogenic fungi [2]	MIC C. glabrata [3] [µg/mL]	MIC C. neoformans [4] [µg/mL]	MIC C. albicans [5] [µg/mL]	suppressive activity against Trichophytons [6]	survival rate on day 7 of the infection ([7]; PBS group all died) [%]	survival of larvae on day 3 of the infection ([7]; drug injected 3 h after infection and once every 24 h for two more days, PBS group 60%)	MIC C. glabrata ([3]; hydrochloride) [µg/mL]	MIC C. neoformans ([4]; hydrochloride) [µg/mL]
(R)/(S)-1-((4-((4-(trifluorobenzyl)oxy)benzyl)amino)-1-oxopentane-2-aminium chloride [Compound 26]	higher inhibitory activity than amphotericin B	very excellent suppressive activity	8	4	16	excellent suppressive activity	–	–	–	–
CCC(N)C(=O)NCc1ccc(OCc2ccc(C(F)(F)F)cc2)cc1.Cl (racemic) [Compound 22, (R)/(S)-1-oxo-1-((4-((4-(trifluoromethyl)benzyl)oxy)benzyl)amino)butane-2-aminium chloride]	higher inhibitory activity than amphotericin B	–	32	16	64	–	–	–	–	–
CCC(N)C(=O)NCc1ccc(OCc2cccc(F)c2)cc1.Cl (racemic) [Compound 18, (R)/(S)-1-((4-((3-(fluorobenzyl)oxy)benzyl)amino)-1-oxobutane-2-aminium chloride]	–	–	>128	128	>128	–	50	all survived	–	–
CCC(NC)C(=O)NCc1ccc(OCc2cccc(Cl)c2)cc1 (racemic) [Compound 28, (R)/(S)-N-(4-((3-chlorobenzyl)oxy)benzyl)-2-(methylamino)butanamide]	higher inhibitory activity than amphotericin B	–	64 (≈ 185 µM)	16 (≈ 46.1 µM)	64 (≈ 185 µM)	–	–	–	–	–
Cl.O=C(NCc1ccc(OCc2cccc(F)c2)cc1)C1CCCN1 (racemic) [Compound 49, (R)/(S)-2-((4-((3-fluorobenzyl)oxy)benzyl)carbamoyl)pyrrolidi-1-nium chloride]	–	–	>128	32	>128	–	–	–	–	–
Cl.O=C(NCc1ccc(OCc2ccc(F)cc2)cc1)C1CCCN1 (racemic) [Compound 39, (R)/(S)-N-(4-((4-fluorobenzyl)oxy)benzyl)pyrrolidine-2-carboxamide hydrochloride]	–	–	>128	128	>128	–	–	–	–	–
CN1CCCC1C(=O)NCc1ccc(OCc2cccc(F)c2)cc1 (racemic) [Compound 42, (R)/(s)-1-methyl-N-(4-((3-fluorobenzyl)oxy)benzyl)pyrrolidine-2-carboxamide]	–	–	128 (≈ 374 µM)	16 (≈ 46.7 µM)	128 (≈ 374 µM)	–	–	–	–	–
CCC(N)C(=O)NCc1ccc(OCc2cccc(C(F)(F)F)c2)cc1.Cl (racemic) [Compound 21, (R)/(S)-1-oxo-1-((4-((3-(trifluoromethyl)benzyl)oxy)benzyl)amino)butane-2-aminium chloride]	–	–	64	16	64	–	–	–	–	–
CCCC(NC)C(=O)NCc1ccc(OCc2ccc(C(F)(F)F)cc2)cc1 (racemic) [Compound 31, (R)/(S)-2-(methylamino)-N-(4-((4-trifluoromethyl)benzyl)oxy)benzyl)pentanamide]	–	–	16 (≈ 40.6 µM)	4 (≈ 10.1 µM)	16 (≈ 40.6 µM)	–	–	–	–	–
CCCC(N)C(=O)NCc1ccc(OCc2cccc(F)c2)cc1.Cl (racemic) [Compound 25, (R)/(S)-1-((4-((3-fluorobenzyl)oxy)benzyl)amino)-1-oxopentane-2-aminium chloride]	–	–	64	32	128	–	–	–	–	–
CCC(NC)C(=O)NCc1ccc(OCc2ccc(C(F)(F)F)cc2)cc1 (racemic) [Compound 27, (R)/(S)-2-(methylamino)-N-(4-((4-trifluoromethyl)benzyl)oxy)benzyl)butanamide]	–	–	16 (≈ 42.1 µM)	4 (≈ 10.5 µM)	16 (≈ 42.1 µM)	–	–	–	–	–
Cl.O=C(NCc1ccc(OCc2ccc(C(F)(F)F)cc2)cc1)C1CCCN1 (racemic) [Compound 40, (R)/(S)-N-(4-((4-(trifluoromethyl)benzyl)oxy)benzyl)pyrrolidine-2-carboxamide hydrochloride]	–	–	–	–	64	–	–	–	32	16
